Molecules are shown by their SMILES. Values after ≈ are worked out from the molar mass of the structure shown.

A word on the MIC: it is the smallest concentration in the dilution series that meets the test's criterion for growth inhibition. Low values mean inhibition by little substance, high ones a need for much substance.

In the first assay the test system is Enterococcus faecalis. In words: Antibacterial activity against Streptococcus faecalis NRRL B14617 by micro-broth dilution method. The class given is functional.
Details: not given
In turn, `O=[N+]([O-])c1ccc(-c2csc(N3N=C(c4cccs4)CC3c3cccnc3)n2)cc1` (stereo unspecified) returned an MIC of 125 µg/mL (≈ 288 µM).
On the same count and under the same terms, to `c1ccc(-c2csc(N3N=C(c4cccs4)CC3c3ccccn3)n2)cc1` (stereo unspecified) belongs 250 µg/mL (≈ 643 µM).
Still for that read-out and setting: to `COc1ccc(-c2csc(N3N=C(c4cccs4)CC3c3ccccn3)n2)cc1` (stereo unspecified) belongs 250 µg/mL (≈ 597 µM).
Same read-out and setting: the figure for `Clc1ccc(-c2csc(N3N=C(c4cccs4)CC3c3ccccn3)n2)cc1` (stereo unspecified) is 250 µg/mL (≈ 591 µM); for `O=[N+]([O-])c1ccc(-c2csc(N3N=C(c4cccs4)CC3c3ccccn3)n2)cc1` (stereo unspecified) it is 500 µg/mL (≈ 1150 µM); for `O=[N+]([O-])c1ccc(-c2csc(N3N=C(c4cccs4)CC3c3ccncc3)n2)cc1` (stereo unspecified) it is 250 µg/mL (≈ 577 µM).
With `Cc1ccc(-c2csc(N3N=C(c4cccs4)CC3c3cccnc3)n2)cc1` (stereo unspecified), 250 µg/mL (≈ 621 µM) was the least that counted as inhibitory (MIC).

A further assay concerns Staphylococcus aureus. As to the kind of experiment: Antibacterial activity against Staphylococcus aureus NRRL B767 by micro-broth dilution method. Type of assay: functional.
Details: not given
In general terms: Dilution methods test growth across graded concentrations, often in twofold steps.
Compound `O=[N+]([O-])c1ccc(-c2csc(N3N=C(c4cccs4)CC3c3cccnc3)n2)cc1` (stereo unspecified) registered an MIC of 31.2 µg/mL (≈ 72.1 µM).
On the same count and under the same terms, the figure for `c1ccc(-c2csc(N3N=C(c4cccs4)CC3c3ccccn3)n2)cc1` (stereo unspecified) is 250 µg/mL (≈ 643 µM); for `COc1ccc(-c2csc(N3N=C(c4cccs4)CC3c3ccccn3)n2)cc1` (stereo unspecified) it is 125 µg/mL (≈ 299 µM).
As for `Clc1ccc(-c2csc(N3N=C(c4cccs4)CC3c3ccccn3)n2)cc1` (stereo unspecified), the MIC was determined as 250 µg/mL (≈ 591 µM).
Still for that read-out and setting: the figure for `O=[N+]([O-])c1ccc(-c2csc(N3N=C(c4cccs4)CC3c3ccccn3)n2)cc1` (stereo unspecified) is 250 µg/mL (≈ 577 µM); for `O=[N+]([O-])c1ccc(-c2csc(N3N=C(c4cccs4)CC3c3ccncc3)n2)cc1` (stereo unspecified) it is 125 µg/mL (≈ 288 µM); for `Cc1ccc(-c2csc(N3N=C(c4cccs4)CC3c3cccnc3)n2)cc1` (stereo unspecified) it is 125 µg/mL (≈ 311 µM).

The next assay relates to Nakaseomyces glabratus. In words: Antifungal activity against Candida glabrata by broth dilution antifungal susceptibility testing. The class given is functional.
Details: not given
`O=[N+]([O-])c1ccc(-c2csc(N3N=C(c4cccs4)CC3c3cccnc3)n2)cc1` (stereo unspecified): the MIC amounted to 62.5 µg/mL (≈ 144 µM).
Still for that read-out and setting: to `c1ccc(-c2csc(N3N=C(c4cccs4)CC3c3ccccn3)n2)cc1` (stereo unspecified) belongs 62.5 µg/mL (≈ 161 µM); to `COc1ccc(-c2csc(N3N=C(c4cccs4)CC3c3ccccn3)n2)cc1` (stereo unspecified), 62.5 µg/mL (≈ 149 µM); to `Clc1ccc(-c2csc(N3N=C(c4cccs4)CC3c3ccccn3)n2)cc1` (stereo unspecified), 125 µg/mL (≈ 296 µM).
Regarding `O=[N+]([O-])c1ccc(-c2csc(N3N=C(c4cccs4)CC3c3ccccn3)n2)cc1` (stereo unspecified), 125 µg/mL (≈ 288 µM) was the least that counted as inhibitory (MIC).
`O=[N+]([O-])c1ccc(-c2csc(N3N=C(c4cccs4)CC3c3ccncc3)n2)cc1` (stereo unspecified) gave an MIC of 125 µg/mL (≈ 288 µM).
`Cc1ccc(-c2csc(N3N=C(c4cccs4)CC3c3cccnc3)n2)cc1` (stereo unspecified) returned an MIC of 125 µg/mL (≈ 311 µM).

The next assay has as its system Candida albicans. As to the kind of experiment: Antifungal activity against Candida albicans by micro-broth dilution method. Type of assay: functional.
Details: not given
Compound `O=[N+]([O-])c1ccc(-c2csc(N3N=C(c4cccs4)CC3c3cccnc3)n2)cc1` (stereo unspecified) returned an MIC of 62.5 µg/mL (≈ 144 µM).
Regarding `c1ccc(-c2csc(N3N=C(c4cccs4)CC3c3ccccn3)n2)cc1` (stereo unspecified), the MIC stood at 62.5 µg/mL (≈ 161 µM).
Still for that read-out and setting: to `COc1ccc(-c2csc(N3N=C(c4cccs4)CC3c3ccccn3)n2)cc1` (stereo unspecified) belongs 62.5 µg/mL (≈ 149 µM); to `Clc1ccc(-c2csc(N3N=C(c4cccs4)CC3c3ccccn3)n2)cc1` (stereo unspecified), 125 µg/mL (≈ 296 µM).
For the compound `O=[N+]([O-])c1ccc(-c2csc(N3N=C(c4cccs4)CC3c3ccccn3)n2)cc1` (stereo unspecified), 125 µg/mL (≈ 288 µM) was the least that counted as inhibitory (MIC).
The same measure, in the same setting: to `O=[N+]([O-])c1ccc(-c2csc(N3N=C(c4cccs4)CC3c3ccncc3)n2)cc1` (stereo unspecified) belongs 125 µg/mL (≈ 288 µM); to `Cc1ccc(-c2csc(N3N=C(c4cccs4)CC3c3cccnc3)n2)cc1` (stereo unspecified), 125 µg/mL (≈ 311 µM).

For the next assay, the system named is Aeromonas hydrophila. In words: Antibacterial activity against Aeromonas hydrophila by micro-broth dilution method. Type of assay: functional.
Details: not given
For `O=[N+]([O-])c1ccc(-c2csc(N3N=C(c4cccs4)CC3c3cccnc3)n2)cc1` (stereo unspecified), it took 31.2 µg/mL (≈ 72.1 µM) to inhibit growth (MIC).
Compound `c1ccc(-c2csc(N3N=C(c4cccs4)CC3c3ccccn3)n2)cc1` (stereo unspecified) displayed an MIC of 62.5 µg/mL (≈ 161 µM).
The same measure, in the same setting: the figure for `COc1ccc(-c2csc(N3N=C(c4cccs4)CC3c3ccccn3)n2)cc1` (stereo unspecified) is 62.5 µg/mL (≈ 149 µM); for `Clc1ccc(-c2csc(N3N=C(c4cccs4)CC3c3ccccn3)n2)cc1` (stereo unspecified) it is 125 µg/mL (≈ 296 µM).
`O=[N+]([O-])c1ccc(-c2csc(N3N=C(c4cccs4)CC3c3ccccn3)n2)cc1` (stereo unspecified) showed an MIC of 125 µg/mL (≈ 288 µM).
Regarding `O=[N+]([O-])c1ccc(-c2csc(N3N=C(c4cccs4)CC3c3ccncc3)n2)cc1` (stereo unspecified), the MIC came out at 125 µg/mL (≈ 288 µM).
`Cc1ccc(-c2csc(N3N=C(c4cccs4)CC3c3cccnc3)n2)cc1` (stereo unspecified): the MIC stood at 250 µg/mL (≈ 621 µM).

The next assay deals with Salmonella typhimurium. In words: Antibacterial activity against Salmonella Typhimurium NRRL B4420 by microbroth dilution method. To be noted: Salmonella enterica. The class given is functional, Salmonella enterica subsp. enterica serovar Typhimurium.
In the case of `O=[N+]([O-])c1ccc(-c2csc(N3N=C(c4cccs4)CC3c3cccnc3)n2)cc1` (stereo unspecified), the lowest concentration to inhibit growth (MIC) was 125 µg/mL (≈ 288 µM).
`c1ccc(-c2csc(N3N=C(c4cccs4)CC3c3ccccn3)n2)cc1` (stereo unspecified) displayed an MIC of 125 µg/mL (≈ 322 µM).
With `COc1ccc(-c2csc(N3N=C(c4cccs4)CC3c3ccccn3)n2)cc1` (stereo unspecified), the minimal inhibitory concentration (MIC) is 125 µg/mL (≈ 299 µM).
The same measure, in the same setting: to `Clc1ccc(-c2csc(N3N=C(c4cccs4)CC3c3ccccn3)n2)cc1` (stereo unspecified) belongs 250 µg/mL (≈ 591 µM); to `O=[N+]([O-])c1ccc(-c2csc(N3N=C(c4cccs4)CC3c3ccccn3)n2)cc1` (stereo unspecified), 250 µg/mL (≈ 577 µM); to `O=[N+]([O-])c1ccc(-c2csc(N3N=C(c4cccs4)CC3c3ccncc3)n2)cc1` (stereo unspecified), 125 µg/mL (≈ 288 µM).
Same read-out and setting: to `Cc1ccc(-c2csc(N3N=C(c4cccs4)CC3c3cccnc3)n2)cc1` (stereo unspecified) belongs 125 µg/mL (≈ 311 µM).

The subject of a further assay is Bacillus cereus. In words: Antibacterial activity against Bacillus cereus NRRL B3711 by micro-broth dilution method. Type of assay: functional.
Details: not given
`O=[N+]([O-])c1ccc(-c2csc(N3N=C(c4cccs4)CC3c3cccnc3)n2)cc1` (stereo unspecified): the minimal inhibitory concentration (MIC) stood at 125 µg/mL (≈ 288 µM).
Same read-out and setting: to `c1ccc(-c2csc(N3N=C(c4cccs4)CC3c3ccccn3)n2)cc1` (stereo unspecified) belongs 250 µg/mL (≈ 643 µM).
On the same count and under the same terms, the figure for `COc1ccc(-c2csc(N3N=C(c4cccs4)CC3c3ccccn3)n2)cc1` (stereo unspecified) is 250 µg/mL (≈ 597 µM); for `Clc1ccc(-c2csc(N3N=C(c4cccs4)CC3c3ccccn3)n2)cc1` (stereo unspecified) it is 250 µg/mL (≈ 591 µM).
Compound `O=[N+]([O-])c1ccc(-c2csc(N3N=C(c4cccs4)CC3c3ccccn3)n2)cc1` (stereo unspecified) registered an MIC of 500 µg/mL (≈ 1150 µM).
Compound `O=[N+]([O-])c1ccc(-c2csc(N3N=C(c4cccs4)CC3c3ccncc3)n2)cc1` (stereo unspecified) displayed an MIC of 62.5 µg/mL (≈ 144 µM).
Turning to `Cc1ccc(-c2csc(N3N=C(c4cccs4)CC3c3cccnc3)n2)cc1` (stereo unspecified), the MIC amounted to 250 µg/mL (≈ 621 µM).

The subject of a further assay is Escherichia coli. In words: Antibacterial activity against Escherichia coli NRRL B3704 by microbroth dilution method. The class given is functional.
Details: not given
With `O=[N+]([O-])c1ccc(-c2csc(N3N=C(c4cccs4)CC3c3cccnc3)n2)cc1` (stereo unspecified), inhibition of growth (MIC) required 250 µg/mL (≈ 577 µM).
Still for that read-out and setting: the figure for `c1ccc(-c2csc(N3N=C(c4cccs4)CC3c3ccccn3)n2)cc1` (stereo unspecified) is 125 µg/mL (≈ 322 µM); for `COc1ccc(-c2csc(N3N=C(c4cccs4)CC3c3ccccn3)n2)cc1` (stereo unspecified) it is 125 µg/mL (≈ 299 µM).
Take `Clc1ccc(-c2csc(N3N=C(c4cccs4)CC3c3ccccn3)n2)cc1` (stereo unspecified): the MIC was found to be 125 µg/mL (≈ 296 µM).
Same read-out and setting: the figure for `O=[N+]([O-])c1ccc(-c2csc(N3N=C(c4cccs4)CC3c3ccccn3)n2)cc1` (stereo unspecified) is 125 µg/mL (≈ 288 µM); for `O=[N+]([O-])c1ccc(-c2csc(N3N=C(c4cccs4)CC3c3ccncc3)n2)cc1` (stereo unspecified) it is 125 µg/mL (≈ 288 µM).
`Cc1ccc(-c2csc(N3N=C(c4cccs4)CC3c3cccnc3)n2)cc1` (stereo unspecified) yielded an MIC of 250 µg/mL (≈ 621 µM).

Source of the values: ChEMBL document CHEMBL1143796, “Synthesis and antimicrobial activity of 1-(4-aryl-2-thiazolyl)-3-(2-thienyl)-5-aryl-2-pyrazoline derivatives” (2007).
